How the values were obtained:
Test in all cases: relative viability (nuclei count vs DMSO), 5 days (fraction); higher = more cells survive
[1] = tested on: NCI-H1944
Procedure, shortened: (§1)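 Medians of duplicate plates are given as relative viability. That measure is the nuclei count in treated wells divided by the count in vehicle wells. Counts were taken on 4× images of lung cancer cell lines in 1536-well plates, 5 days after pin-tool dosing the day after seeding with one drug alone or a fixed anchor-drug dose plus five library-drug doses (not always all listed) in √10 steps.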

[2] = tested on: NCI-H460
Procedure, shortened: as §1

[3] = tested on: NCI-H2405
Procedure, shortened: as §1

[4] = tested on: ChaGo-K-1
Procedure, shortened: as §1

[5] = tested on: NCI-H3122
Procedure, shortened: as §1

[6] = tested on: RERF-LC-KJ
Procedure, shortened: as §1

[7] = tested on: CAL-12T
Procedure, shortened: as §1

[8] = tested on: NCI-H2087
Procedure, shortened: as §1

[9] = tested on: NCI-H1651
Procedure, shortened: as §1

[10] = tested on: NCI-H1755
Procedure, shortened: as §1

[11] = tested on: ABC-1
Procedure, shortened: as §1

[12] = tested on: UMC-11
Procedure, shortened: as §1

[13] = tested on: LU99A
Procedure, shortened: as §1

[14] = tested on: LOU-NH91
Procedure, shortened: as §1

[15] = tested on: NCI-H1793
Procedure, shortened: as §1

[16] = tested on: PC-3 [JPC-3]
Procedure, shortened: as §1

[17] = tested on: LC-2-ad
Procedure, shortened: as §1

[18] = tested on: NCI-H1395
Procedure, shortened: as §1

[19] = tested on: NCI-H2170
Procedure, shortened: as §1

[20] = tested on: NCI-H2228
Procedure, shortened: as §1

With Nc1ccn([C@@H]2O[C@H](CO)[C@@H](O)[C@@H]2O)c(=O)n1 [Cytarabine] + CCNC(=O)c1noc(-c2cc(C(C)C)c(O)cc2O)c1-c1ccc(CN2CCOCC2)cc1 [Luminespib] (partner 0.01 µM) the relative viability ([1]; first compound 0.005 µM) was 0.619, the relative viability ([1]; first compound 0.01581 µM) was 0.343 and the relative viability ([1]; first compound 0.05 µM) was 0.264. The relative viability ([1]; first compound 0.1581 µM) was 0.185, the relative viability ([1]; first compound 0.5 µM) was 0.134 and the relative viability ([2]; first compound 0.005 µM) was 0.036. For the same compound, the relative viability ([2]; first compound 0.01581 µM) was 0.0332, the relative viability ([2]; first compound 0.05 µM) was 0.0248 and the relative viability ([2]; first compound 0.1581 µM) was 0.0172. It also gave a relative viability ([2]; first compound 0.5 µM) of 0.0144, a relative viability ([3]; first compound 0.005 µM) of 0.64 and a relative viability ([3]; first compound 0.01581 µM) of 0.547. It also gave a relative viability ([3]; first compound 0.05 µM) of 0.553, a relative viability ([3]; first compound 0.1581 µM) of 0.369 and a relative viability ([3]; first compound 0.5 µM) of 0.318. The relative viability ([4]; first compound 0.005 µM) was 0.649, the relative viability ([4]; first compound 0.01581 µM) was 0.43 and the relative viability ([4]; first compound 0.05 µM) was 0.263. For the same compound, the relative viability ([4]; first compound 0.1581 µM) was 0.206, the relative viability ([4]; first compound 0.5 µM) was 0.188 and the relative viability ([5]; first compound 0.005 µM) was 0.0849. The relative viability ([5]; first compound 0.01581 µM) was 0.0661, the relative viability ([5]; first compound 0.05 µM) was 0.0881 and the relative viability ([5]; first compound 0.1581 µM) was 0.0776. It also gave a relative viability ([5]; first compound 0.5 µM) of 0.0754, a relative viability ([6]; first compound 0.005 µM) of 0.968 and a relative viability ([6]; first compound 0.01581 µM) of 1.04. The relative viability ([6]; first compound 0.05 µM) was 0.977, the relative viability ([6]; first compound 0.1581 µM) was 0.38 and the relative viability ([6]; first compound 0.5 µM) was 0.416. The relative viability ([7]; first compound 0.005 µM) was 0.227, the relative viability ([7]; first compound 0.01581 µM) was 0.288 and the relative viability ([7]; first compound 0.05 µM) was 0.64. For the same compound, the relative viability ([7]; first compound 0.1581 µM) was 0.217, the relative viability ([7]; first compound 0.5 µM) was 0.178 and the relative viability ([8]; first compound 0.005 µM) was 0.151. The relative viability ([8]; first compound 0.01581 µM) was 0.134, the relative viability ([8]; first compound 0.05 µM) was 0.169 and the relative viability ([8]; first compound 0.1581 µM) was 0.151. For the same compound, the relative viability ([8]; first compound 0.5 µM) was 0.134, the relative viability ([9]; first compound 0.005 µM) was 0.751 and the relative viability ([9]; first compound 0.01581 µM) was 1.02. The relative viability ([9]; first compound 0.05 µM) was 0.954, the relative viability ([9]; first compound 0.1581 µM) was 0.705 and the relative viability ([9]; first compound 0.5 µM) was 0.262. It also gave a relative viability ([10]; first compound 0.005 µM) of 0.879, a relative viability ([10]; first compound 0.01581 µM) of 0.222 and a relative viability ([10]; first compound 0.05 µM) of 0.328. The relative viability ([10]; first compound 0.1581 µM) was 0.274, the relative viability ([10]; first compound 0.5 µM) was 0.378 and the relative viability ([11]; first compound 0.005 µM) was 0.732. It also gave a relative viability ([11]; first compound 0.01581 µM) of 0.624, a relative viability ([11]; first compound 0.05 µM) of 0.712 and a relative viability ([11]; first compound 0.1581 µM) of 0.381. The relative viability ([11]; first compound 0.5 µM) was 0.281, the relative viability ([12]; first compound 0.005 µM) was 0.792 and the relative viability ([12]; first compound 0.01581 µM) was 0.591. For the same compound, the relative viability ([12]; first compound 0.05 µM) was 0.495, the relative viability ([12]; first compound 0.1581 µM) was 0.357 and the relative viability ([12]; first compound 0.5 µM) was 0.225. For the same compound, the relative viability ([13]; first compound 0.005 µM) was 0.209, the relative viability ([13]; first compound 0.01581 µM) was 0.199 and the relative viability ([13]; first compound 0.05 µM) was 0.217. For the same compound, the relative viability ([13]; first compound 0.1581 µM) was 0.167, the relative viability ([13]; first compound 0.5 µM) was 0.201 and the relative viability ([14]; first compound 0.005 µM) was 0.362. For the same compound, the relative viability ([14]; first compound 0.01581 µM) was 0.361, the relative viability ([14]; first compound 0.05 µM) was 0.321 and the relative viability ([14]; first compound 0.1581 µM) was 0.316. The relative viability ([14]; first compound 0.5 µM) was 0.317, the relative viability ([15]; first compound 0.005 µM) was 0.201 and the relative viability ([15]; first compound 0.01581 µM) was 0.186. The relative viability ([15]; first compound 0.05 µM) was 0.232, the relative viability ([15]; first compound 0.1581 µM) was 0.184 and the relative viability ([15]; first compound 0.5 µM) was 0.155. It also gave a relative viability ([16]; first compound 0.005 µM) of 0.754, a relative viability ([16]; first compound 0.01581 µM) of 0.73 and a relative viability ([16]; first compound 0.05 µM) of 0.782. For the same compound, the relative viability ([16]; first compound 0.1581 µM) was 0.453, the relative viability ([16]; first compound 0.5 µM) was 0.551 and the relative viability ([17]; first compound 0.005 µM) was 0.892. The relative viability ([17]; first compound 0.01581 µM) was 0.994, the relative viability ([17]; first compound 0.05 µM) was 0.768 and the relative viability ([17]; first compound 0.1581 µM) was 0.636. It also gave a relative viability ([17]; first compound 0.5 µM) of 0.478, a relative viability ([18]; first compound 0.005 µM) of 0.544 and a relative viability ([18]; first compound 0.01581 µM) of 0.61. The relative viability ([18]; first compound 0.05 µM) was 0.437, the relative viability ([18]; first compound 0.1581 µM) was 0.366 and the relative viability ([18]; first compound 0.5 µM) was 0.346. The relative viability ([19]; first compound 0.005 µM) was 0.761, the relative viability ([19]; first compound 0.01581 µM) was 0.431 and the relative viability ([19]; first compound 0.05 µM) was 0.248. The relative viability ([19]; first compound 0.1581 µM) was 0.23, the relative viability ([19]; first compound 0.5 µM) was 0.158 and the relative viability ([20]; first compound 0.005 µM) was 0.141. For the same compound, the relative viability ([20]; first compound 0.01581 µM) was 0.121, the relative viability ([20]; first compound 0.05 µM) was 0.141 and the relative viability ([20]; first compound 0.1581 µM) was 0.116. For the same compound, the relative viability ([20]; first compound 0.5 µM) was 0.12.

Reference: the supplement of paper PMC10307832
